Measured values as given in patent US11021467B2, “Phosphatidylinositol 3-kinase inhibitors” (Gilead Sciences, Inc., priority 2014, dated 2021).
pIC50: −log10 of the molar value.

Columns and labels:
Experiment in all cases: TR-FRET enzymatic activity assay against PI3K isoforms
Assay type in all cases: biochemical
PI3Kγ = PI3Kγ (Homo sapiens (Human), UniProt P48736); conditions: 2×Km ATP, 30 minutes at 25° C.
From the text: (§1) The compounds of formula (I) were characterized for their enzymatic activity against the PI3K isoforms. […] TR-FRET monitored the formation of 3,4,5-inositol triphosphate molecule that competed with fluorescently labeled PIP3 for binding to the GRP-1 pleckstrin homology domain protein.

PI3Kδ = PI3Kδ (Homo sapiens (Human), UniProt O00329); conditions: 2×Km ATP, 30 minutes at 25° C.
From the text: as §1

PI3Kβ = PI3Kβ (Homo sapiens (Human), UniProt P42338); conditions: PI3Kβ, TR-FRET, 2×Km ATP, 30 minutes at 25° C.
From the text: as §1

Chain of PI3Kγ (P48736 whole entry, the tested form may be a part, canonical isoform): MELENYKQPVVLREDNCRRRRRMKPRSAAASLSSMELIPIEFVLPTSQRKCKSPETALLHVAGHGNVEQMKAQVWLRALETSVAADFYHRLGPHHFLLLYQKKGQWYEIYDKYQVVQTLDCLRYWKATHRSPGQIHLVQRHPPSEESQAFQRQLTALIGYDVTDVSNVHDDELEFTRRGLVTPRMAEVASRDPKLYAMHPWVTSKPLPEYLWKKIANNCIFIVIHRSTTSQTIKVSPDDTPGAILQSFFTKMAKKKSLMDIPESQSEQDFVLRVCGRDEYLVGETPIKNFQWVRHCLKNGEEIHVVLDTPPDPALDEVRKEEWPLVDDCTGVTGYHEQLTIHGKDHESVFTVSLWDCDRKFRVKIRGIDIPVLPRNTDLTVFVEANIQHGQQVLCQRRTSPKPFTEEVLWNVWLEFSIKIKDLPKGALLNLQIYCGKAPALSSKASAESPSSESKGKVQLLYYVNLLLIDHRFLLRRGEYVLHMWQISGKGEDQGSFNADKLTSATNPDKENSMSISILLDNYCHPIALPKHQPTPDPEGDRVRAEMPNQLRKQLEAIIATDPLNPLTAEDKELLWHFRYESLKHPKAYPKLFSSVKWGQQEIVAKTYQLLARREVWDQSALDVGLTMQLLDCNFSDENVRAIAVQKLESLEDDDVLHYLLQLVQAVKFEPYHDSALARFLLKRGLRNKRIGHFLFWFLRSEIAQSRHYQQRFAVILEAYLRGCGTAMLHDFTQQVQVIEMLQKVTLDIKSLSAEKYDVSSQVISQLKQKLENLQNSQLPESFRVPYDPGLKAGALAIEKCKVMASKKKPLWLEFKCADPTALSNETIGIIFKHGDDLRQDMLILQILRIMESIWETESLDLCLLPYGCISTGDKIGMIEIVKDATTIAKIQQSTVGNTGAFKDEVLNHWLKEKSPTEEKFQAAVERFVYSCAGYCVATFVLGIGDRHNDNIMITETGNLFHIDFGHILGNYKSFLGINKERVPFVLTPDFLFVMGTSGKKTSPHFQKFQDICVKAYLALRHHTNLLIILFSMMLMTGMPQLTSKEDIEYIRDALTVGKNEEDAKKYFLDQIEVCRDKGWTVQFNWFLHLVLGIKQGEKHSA
Chain of PI3Kδ (O00329 whole entry): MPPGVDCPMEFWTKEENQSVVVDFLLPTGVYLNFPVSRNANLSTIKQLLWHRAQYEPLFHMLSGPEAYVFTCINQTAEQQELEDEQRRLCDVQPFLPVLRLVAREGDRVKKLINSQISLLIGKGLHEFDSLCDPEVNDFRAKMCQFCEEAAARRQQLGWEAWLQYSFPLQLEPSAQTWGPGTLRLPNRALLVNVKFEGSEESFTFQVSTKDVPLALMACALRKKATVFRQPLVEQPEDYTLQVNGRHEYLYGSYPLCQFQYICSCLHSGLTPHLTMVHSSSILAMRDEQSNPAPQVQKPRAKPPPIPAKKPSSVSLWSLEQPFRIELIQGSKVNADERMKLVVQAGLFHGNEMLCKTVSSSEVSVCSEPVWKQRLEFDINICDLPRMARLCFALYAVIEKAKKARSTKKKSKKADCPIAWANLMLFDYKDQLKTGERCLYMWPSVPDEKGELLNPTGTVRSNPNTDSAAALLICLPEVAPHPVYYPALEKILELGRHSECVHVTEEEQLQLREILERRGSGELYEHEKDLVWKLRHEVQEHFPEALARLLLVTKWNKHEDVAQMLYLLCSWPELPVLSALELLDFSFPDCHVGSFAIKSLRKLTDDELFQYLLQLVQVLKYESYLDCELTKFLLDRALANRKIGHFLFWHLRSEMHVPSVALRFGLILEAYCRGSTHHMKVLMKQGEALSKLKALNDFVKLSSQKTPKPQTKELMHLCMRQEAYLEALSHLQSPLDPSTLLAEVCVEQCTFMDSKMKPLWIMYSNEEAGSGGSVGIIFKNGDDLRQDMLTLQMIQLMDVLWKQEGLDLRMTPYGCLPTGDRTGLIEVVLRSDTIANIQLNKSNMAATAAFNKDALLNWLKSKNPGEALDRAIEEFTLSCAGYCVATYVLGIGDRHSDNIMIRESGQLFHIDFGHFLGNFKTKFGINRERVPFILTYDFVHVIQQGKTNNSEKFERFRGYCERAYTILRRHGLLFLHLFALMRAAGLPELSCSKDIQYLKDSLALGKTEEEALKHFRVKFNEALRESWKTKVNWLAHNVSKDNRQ
Chain of PI3Kδ (P27986 whole entry partner): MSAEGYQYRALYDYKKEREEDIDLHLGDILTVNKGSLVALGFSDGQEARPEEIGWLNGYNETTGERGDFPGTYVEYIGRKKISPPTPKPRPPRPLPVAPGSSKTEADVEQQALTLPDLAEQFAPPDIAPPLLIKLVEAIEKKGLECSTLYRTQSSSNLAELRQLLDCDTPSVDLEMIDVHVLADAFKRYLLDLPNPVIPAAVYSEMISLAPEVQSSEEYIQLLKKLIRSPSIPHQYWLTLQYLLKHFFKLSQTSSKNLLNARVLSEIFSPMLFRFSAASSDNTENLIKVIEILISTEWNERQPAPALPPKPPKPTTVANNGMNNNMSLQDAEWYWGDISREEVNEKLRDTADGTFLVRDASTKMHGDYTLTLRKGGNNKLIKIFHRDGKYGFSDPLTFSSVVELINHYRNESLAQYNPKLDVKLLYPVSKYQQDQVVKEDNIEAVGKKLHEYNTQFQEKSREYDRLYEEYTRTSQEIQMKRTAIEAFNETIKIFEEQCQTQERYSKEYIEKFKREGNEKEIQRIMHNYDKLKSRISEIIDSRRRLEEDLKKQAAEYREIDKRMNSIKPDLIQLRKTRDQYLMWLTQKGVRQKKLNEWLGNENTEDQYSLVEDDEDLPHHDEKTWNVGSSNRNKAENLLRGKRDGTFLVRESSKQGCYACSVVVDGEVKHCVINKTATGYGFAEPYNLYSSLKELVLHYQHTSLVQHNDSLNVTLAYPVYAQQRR
Chain of PI3Kβ (P42338 whole entry): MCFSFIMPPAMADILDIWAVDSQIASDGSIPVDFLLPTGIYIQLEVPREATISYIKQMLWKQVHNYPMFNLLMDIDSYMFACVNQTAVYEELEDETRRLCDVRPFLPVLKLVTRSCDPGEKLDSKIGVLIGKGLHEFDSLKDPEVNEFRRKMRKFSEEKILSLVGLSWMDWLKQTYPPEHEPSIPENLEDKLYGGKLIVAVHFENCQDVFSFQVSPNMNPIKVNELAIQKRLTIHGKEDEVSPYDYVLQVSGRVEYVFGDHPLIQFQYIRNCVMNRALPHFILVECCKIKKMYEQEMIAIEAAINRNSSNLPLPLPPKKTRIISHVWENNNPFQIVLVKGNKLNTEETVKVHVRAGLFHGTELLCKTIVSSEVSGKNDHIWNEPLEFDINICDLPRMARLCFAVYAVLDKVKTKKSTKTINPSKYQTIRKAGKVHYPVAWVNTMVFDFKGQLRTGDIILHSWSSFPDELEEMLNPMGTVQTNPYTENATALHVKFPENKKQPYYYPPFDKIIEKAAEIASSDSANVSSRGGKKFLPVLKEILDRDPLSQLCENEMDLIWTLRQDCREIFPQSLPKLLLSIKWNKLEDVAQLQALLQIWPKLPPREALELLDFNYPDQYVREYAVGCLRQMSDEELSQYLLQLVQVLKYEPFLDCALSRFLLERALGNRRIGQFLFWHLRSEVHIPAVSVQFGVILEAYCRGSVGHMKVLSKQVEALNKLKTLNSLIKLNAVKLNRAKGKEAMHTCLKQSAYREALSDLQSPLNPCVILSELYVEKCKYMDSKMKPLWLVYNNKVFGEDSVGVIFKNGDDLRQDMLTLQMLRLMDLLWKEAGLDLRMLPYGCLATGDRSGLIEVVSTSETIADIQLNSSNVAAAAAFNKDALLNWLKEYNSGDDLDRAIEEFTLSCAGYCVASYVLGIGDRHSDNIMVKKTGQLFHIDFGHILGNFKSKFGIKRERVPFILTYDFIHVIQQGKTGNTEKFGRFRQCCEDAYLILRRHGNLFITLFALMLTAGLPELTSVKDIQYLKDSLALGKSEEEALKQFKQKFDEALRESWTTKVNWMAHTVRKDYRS
Chain of PI3Kβ (P27986 whole entry partner): as the sequence (P27986 whole entry partner) above

Compound	pIC50 (PI3Kγ)	pIC50 (PI3Kδ)	pIC50 (PI3Kβ)
COCCCn1c([C@H](C)Nc2ncnc(N)c2C#N)nc2c(Cl)ccc(Cl)c2c1=O [Compound 106, (S)-4-amino-6-((1-(5,8-dichloro-3-(3-methoxypropyl)-4-oxo-3,4-dihydroquinazolin-2-yl)ethyl)amino)pyrimidine-5-carbonitrile]	< 5.00	8.10	6.23
COCCCn1c([C@H](C)Nc2ncnc(N)c2C#N)nc2c(F)ccc(F)c2c1=O [Compound 108, (S)-4-amino-6-((1-(5,8-difluoro-3-(3-methoxypropyl)-4-oxo-3,4-dihydroquinazolin-2-yl)ethyl)amino)pyrimidine-5-carbonitrile]	≤ 5.00	7.41	5.70
C[C@H](Nc1nc(N)nc(N)c1C#N)c1nc2cccc(Cl)c2c(=O)n1CCCC#N [Compound 110, (S)-2,4-diamino-6-((1-(5-chloro-3-(3-cyanopropyl)-4-oxo-3,4-dihydroquinazolin-2-yl)ethyl)amino)pyrimidine-5-carbonitrile]	6.74	8.40	7.38
N#CCCCn1c([C@@H](Nc2nc(N)nc(N)c2C#N)C2CC2)nc2cccc(Cl)c2c1=O [Compound 113, (S)-2,4-diamino-6-(((5-chloro-3-(3-cyanopropyl)-4-oxo-3,4-dihydroquinazolin-2-yl)(cyclopropyl)methyl)amino)pyrimidine-5-carbonitrile]	7.23	9.00	7.77
N#CCCCCn1c([C@@H](Nc2nc(N)nc(N)c2C#N)C2CC2)nc2cccc(Cl)c2c1=O [Compound 114, (S)-2,4-diamino-6-(((5-chloro-3-(4-cyanobutyl)-4-oxo-3,4-dihydroquinazolin-2-yl)(cyclopropyl)methyl)amino)pyrimidine-5-carbonitrile]	6.89	9.10	7.92
CC[C@H](Nc1nc(N)nc(N)c1C#N)c1nc2cccc(Cl)c2c(=O)n1CCCC#N [Compound 115, (S)-2,4-diamino-6-((1-(5-chloro-3-(3-cyanopropyl)-4-oxo-3,4-dihydroquinazolin-2-yl)propyl)amino)pyrimidine-5-carbonitrile]	6.72	8.05	6.72
CS(=O)(=O)CCCn1c([C@@H](Nc2nc(N)nc(N)c2C#N)C2CC2)nc2cccc(Cl)c2c1=O [Compound 118, (S)-2,4-diamino-6-(((5-chloro-3-(3-(methylsulfonyl)propyl)-4-oxo-3,4-dihydroquinazolin-2-yl)(cyclopropyl)methyl)amino)pyrimidine-5-carbonitrile]	6.24	8.70	7.89
N#Cc1c(N)nc(N)nc1N[C@H](c1nc2c(Cl)cc(F)cc2c(=O)n1CCCC(N)=O)C1CC1 [Compound 121, (S)-4-(8-chloro-2-(cyclopropyl((2,6-diamino-5-cyanopyrimidin-4-yl)amino)methyl)-6-fluoro-4-oxoquinazolin-3(4H)-yl)butanamide]	6.12	8.70	8.05
C[C@H](Nc1nc(N)nc(N)c1C#N)c1nc2cccc(Cl)c2c(=O)n1C[C@H]1CCNC1 [Compound 125, 2,4-diamino-6-(((S)-1-(5-chloro-4-oxo-3-((S)-pyrrolidin-3-ylmethyl)-3,4-dihydroquinazolin-2-yl)ethyl)amino)pyrimidine-5-carbonitrile]	5.64	8.52	7.31
C[C@H](Nc1nc(N)nc(N)c1C#N)c1nc2cccc(Cl)c2c(=O)n1C[C@@H]1CCNC1 [Compound 126, 2,4-diamino-6-(((S)-1-(5-chloro-4-oxo-3-((R)-pyrrolidin-3-ylmethyl)-3,4-dihydroquinazolin-2-yl)ethyl)amino)pyrimidine-5-carbonitrile]	5.60	9.05	7.62
CCOCCn1c([C@H](C)Nc2nc(N)nc(N)c2C#N)nc2cccc(Cl)c2c1=O [Compound 130, (S)-2,4-diamino-6-((1-(5-chloro-3-(2-ethoxyethyl)-4-oxo-3,4-dihydroquinazolin-2-yl)ethyl)amino)pyrimidine-5-carbonitrile]	6.39	8.52	6.92

Continued by rising pIC50 (PI3Kγ), values first:

pIC50 (PI3Kγ)	pIC50 (PI3Kδ)	pIC50 (PI3Kβ)	Compound
5.52	7.68	6.60	CC[C@H](Nc1nc(N)nc(N)c1C#N)c1nc2cccc(Cl)c2c(=O)n1CCCS(C)(=O)=O [Compound 117, (S)-2,4-diamino-6-((1-(5-chloro-3-(3-(methylsulfonyl)propyl)-4-oxo-3,4-dihydroquinazolin-2-yl)propyl)amino)pyrimidine-5-carbonitrile]
5.66	7.85	6.28	COCCCn1c([C@H](C)Nc2nc(N)nc(N)c2C#N)nc2c(F)ccc(F)c2c1=O [Compound 109, (S)-2,4-diamino-6-((1-(5,8-difluoro-3-(3-methoxypropyl)-4-oxo-3,4-dihydroquinazolin-2-yl)ethyl)amino)pyrimidine-5-carbonitrile]
5.72	8.10	7.52	CS(=O)(=O)CCCn1c([C@@H](Nc2nc(N)nc(N)c2C#N)C2CC2)nc2c(Cl)cc(F)cc2c1=O [Compound 120, (S)-2,4-diamino-6-(((8-chloro-6-fluoro-3-(3-(methylsulfonyl)propyl)-4-oxo-3,4-dihydroquinazolin-2-yl)(cyclopropyl)methyl)amino)pyrimidine-5-carbonitrile]
5.77	8.52	7.09	COCCCn1c([C@H](C)Nc2nc(N)nc(N)c2C#N)nc2c(Cl)ccc(Cl)c2c1=O [Compound 107, (S)-2,4-diamino-6-((1-(5,8-dichloro-3-(3-methoxypropyl)-4-oxo-3,4-dihydroquinazolin-2-yl)ethyl)amino)pyrimidine-5-carbonitrile]
5.85	7.89	6.68	COCC(COC)n1c([C@H](C)Nc2nc(N)nc(N)c2C#N)nc2cccc(Cl)c2c1=O [Compound 131, (S)-2,4-diamino-6-((1-(5-chloro-3-(1,3-dimethoxypropan-2-yl)-4-oxo-3,4-dihydroquinazolin-2-yl)ethyl)amino)pyrimidine-5-carbonitrile]
5.96	8.70	8.10	CS(=O)(=O)CCCn1c([C@@H](Nc2nc(N)nc(N)c2C#N)C2CC2)nc2c(Cl)ccc(Cl)c2c1=O [Compound 119, (S)-2,4-diamino-6-((cyclopropyl(5,8-dichloro-3-(3-(methylsulfonyl)propyl)-4-oxo-3,4-dihydroquinazolin-2-yl)methyl)amino)pyrimidine-5-carbonitrile]
6.14	8.70	6.89	C[C@H](Nc1nc(N)nc(N)c1C#N)c1nc2cccc(Cl)c2c(=O)n1CCCN1CCOCC1 [Compound 127, (S)-2,4-diamino-6-((1-(5-chloro-3-(3-morpholinopropyl)-4-oxo-3,4-dihydroquinazolin-2-yl)ethyl)amino)pyrimidine-5-carbonitrile]
6.27	8.30	6.82	CC[C@H](Nc1nc(N)nc(N)c1C#N)c1nc2cccc(Cl)c2c(=O)n1CCCCC#N [Compound 116, (S)-2,4-diamino-6-((1-(5-chloro-3-(4-cyanobutyl)-4-oxo-3,4-dihydroquinazolin-2-yl)propyl)amino)pyrimidine-5-carbonitrile]
6.28	8.52	7.40	C[C@H](Nc1nc(N)nc(N)c1C#N)c1nc2cccc(Cl)c2c(=O)n1CCCS(C)(=O)=O [Compound 111, (S)-2,4-diamino-6-((1-(5-chloro-3-(3-(methylsulfonyl)propyl)-4-oxo-3,4-dihydroquinazolin-2-yl)ethyl)amino)pyrimidine-5-carbonitrile]
6.28	8.70	6.54	COC(C)(C)CCn1c([C@H](C)Nc2nc(N)nc(N)c2C#N)nc2cccc(Cl)c2c1=O [Compound 129, (S)-2,4-diamino-6-((1-(5-chloro-3-(3-methoxy-3-methylbutyl)-4-oxo-3,4-dihydroquinazolin-2-yl)ethyl)amino)pyrimidine-5-carbonitrile]
6.48	8.70	7.24	COC[C@H](C)n1c([C@H](C)Nc2nc(N)nc(N)c2C#N)nc2cccc(Cl)c2c1=O [Compound 132, 2,4-diamino-6-(((S)-1-(5-chloro-3-((S)-1-methoxypropan-2-yl)-4-oxo-3,4-dihydroquinazolin-2-yl)ethyl)amino)pyrimidine-5-carbonitrile]
6.55	7.82	6.28	C[C@H](Nc1nc(N)nc(N)c1C#N)c1nc2cccc(Cl)c2c(=O)n1CCC(=O)N(C)C [Compound 128, (S)-3-(5-chloro-2-(1-((2,6-diamino-5-cyanopyrimidin-4-yl)amino)ethyl)-4-oxoquinazolin-3(4H)-yl)-N,N-dimethylpropanamide]
6.92	9.15	7.64	CS(=O)(=O)CCCCn1c([C@@H](Nc2nc(N)nc(N)c2C#N)C2CC2)nc2cccc(Cl)c2c1=O [Compound 122, (S)-2,4-diamino-6-(((5-chloro-3-(4-(methylsulfonyl)butyl)-4-oxo-3,4-dihydroquinazolin-2-yl)(cyclopropyl)methyl)amino)pyrimidine-5-carbonitrile]
7.21	8.52	8.10	N#CCCn1c([C@@H](Nc2nc(N)nc(N)c2C#N)C2CC2)nc2cccc(Cl)c2c1=O [Compound 112, (S)-2,4-diamino-6-(((5-chloro-3-(2-cyanoethyl)-4-oxo-3,4-dihydroquinazolin-2-yl)(cyclopropyl)methyl)amino)pyrimidine-5-carbonitrile]
